pEC50, pIC50: −log10 of the molar value.
How the values were obtained:
ZCCHC24 [1] = assay: Compound screening using HiBiT tag knock-in cells (ZCCHC24 expression reporter); type: cell-based, human; details: LOPAC compounds at 1 µM for 24 hours; HiBiT tag-inserted MDAMB231 reporter cells
Protocol: HiBiT tagged-MDAMB231 cells with were produced using the procedure below. First, crRNA (*14 (SEQ ID NO: 14) in Table 1) (IDT) was resuspended in the Nuclease-Free Duplex buffer (IDT) to a final concentration of 100 µM, and incubated at 95°C for 5 minutes together with the same amount of tracrRNA (IDT). The oligo complex was then slowly cooled down to room temperature and incubated with ALT-R Cas9 Nuclease V3 (61 µM) (Integrated DNA Technologies, IA, USA) for 20 minutes at room temperature to form the Cas9 complex. Next, a single-stranded DNA oligo (*15 (SEQ ID NO: 15) in Table 1) (comprising the HiBiT sequence and a sequence complementary to the sequence of the C-terminal region of ZCCHC24) and Cas9 complex were co-transfected into MDAMB231 cells by an electroporation method using the NEPA21 super electroporator ([…]). After single cell cloning, cells inserted with the HiBiT tag were collected.
The compound screening procedure is as follows. HiBiT tag-inserted cells were plated at 1 × 10^4 cells in a 96-well plate, cultured for 24 hours, and then reacted with a low molecular compound library (LOPAC; Sigma Aldrich) at 1 µM (final concentration) for 24 hours. After the culture medium was discarded, cells were incubated with 12.5 µL PBS, 12.5 µL lysis buffer (Promega), 0.5 µL substrate (Promega), and 0.25 µL LgBiT (Promega) for 10 minutes at room temperature in the dark. The luminescence intensity was measured using ARVO X3 (Perkin Elmer).
As mentioned above, ZCCHC24 is strongly expressed in cancer stem cell-like cells, and maintains the expression of genes important for maintaining cancer stemness by directly binding to the mRNA of these genes. Therefore, in order to clarify the expression induction mechanism of ZCCHC24, labeled reporter cells were created by inserting a HiBiT tag into the C terminus of ZCCHC24, 1280 types of compounds in LOPAC (Sigma Aldrich) were administered to these reporter cells at a concentration of 1 µM for 24 hours, and compound screening was performed (Figure 17A). […]

ZEB1 = assay: qPCR analysis on JQ1-treated MDAMB231; type: cell-based, human; details: MDAMB231, 100 nM JQ1, 24 hours
ZCCHC24 [2] = assay: cells; type: cell-based; details: Homo sapiens; HiBiT tag-inserted cells, 24 hours; read-out: EC50 concentration for the maximal increase in the ZCCHC24 expression
Protocol: 1 × 10^4 HiBiT tag-inserted cells were seeded in a 96-well plate. […] After 24 hours, the medium was discarded, and 12.5 µL PBS, 12.5 µL Lytic Buffer from the HiBiT kit (Promega), 0.5 µL substrate, and 0.25 µL LgBiT were added. After 10 minutes of reaction at room temperature, luminescence was measured using ARVO X3 (Perkin Elmer).

MDAMB231 = assay: cells; type: cell-based; details: Homo sapiens, MDA-MB-231; MDAMB231, 48 hours, Cell Titer Glo; read-out: IC50 for maximal cell survival inhibition
Protocol: 2 × 10^3 HiBiT tag-inserted cells were seeded in a 96-well plate. […] After 48 hours, 20 µL of Cell Titer Glo (Promega) was added. After 30 minutes of reaction at 37°C, the […] was measured using ARVO X3 (Perkin Elmer).

MDAMB231 cells = type: cell-based, human; details: 100 nM JQ1, 1 µM PD407824 or both, 24 hours, CD44/NRP1 staining
Protocol: 2 × 10^5 MDAMB231 cells were seeded in a 6-well plate. […] Twenty-four hours later, cells were collected, stained with CD44-PE (IM7, Biolegend) and NRP1-APC (FAB3870A, R&D), and subjected to FACS analysis using FACS Calibur (BD).

SMILES	Z score (ZCCHC24 expression) (ZCCHC24 [1])	expression of ZEB1 (ZEB1)	pEC50 (ZCCHC24 [2])	pIC50 (MDAMB231)	cancer stem cell-like population (MDAMB231 cells)
CC(=O)[C@]1(O)Cc2c(O)c3c(c(O)c2[C@@H](O[C@H]2C[C@H](N)[C@H](O)[C@H](C)O2)C1)C(=O)c1ccccc1C3=O [idarubicin]	up-regulators (compounds with Z score > 3.0 above were defined as up-regulators)				
CC[C@@]1(O)C(=O)OCc2c1cc1n(c2=O)Cc2cc3ccccc3nc2-1 [camptothecin]	up-regulators (compounds with Z score > 3.0 above were defined as up-regulators)				
COc1cc2c[n+](C)c3c4cc5c(cc4ccc3c2cc1OC)OCO5 [nitidine]	up-regulators (compounds with Z score > 3.0 above were defined as up-regulators)				
Cc1sc2c(c1C)C(c1ccc(Cl)cc1)=NC(CC(=O)OC(C)(C)C)c1nnc(C)n1-2 (stereo not shown) [JQ1]		dramatically increased	~7.30	~7.00	no decrease

From patent EP4480494A1, “COMPOSITION FOR USE IN TREATMENT OF CANCER, INFLAMMATORY DISEASES, OR OBESITY, AND USE THEREOF” (National University Corporation Tokyo Medical and Dental …, priority 2022, dated 2023)
